The results in this text go back to paper PMC11073428, “The activity of pyrazolo[4,3-e][1,2,4]triazine and pyrazolo[4,3-e]tetrazolo[1,5-b][1,2,4]triazine sulphonamide derivatives in monolayer and spheroid breast cancer cell cultures” (Journal of Enzyme Inhibition and Medicinal Chemistry, 2024).

The structures appear in SMILES notation.

Series [1] has as its system beclin-1 in MCF-7 cells. Description: Anti-beclin-1 antibody flow cytometry, MCF-7. The series is classed as cell-based, human. As to conditions: MCF-7, 0.5 µM, 24 h. Here is the method: The fixation and permeabilisation were performed as described above. Cells were resuspended in 100 µL of diluted primary antibody (1:100 in PBS, anti-beclin 1 antibody (2A4) #ab114071, Abcam, Cambridge, UK) and incubated 30 min in the dark at RT. The cells were washed three times by centrifugation in PBS. Then to each probe, 100 µL of diluted fluorochrome-labelled secondary antibody (1:100 in PBS; goat anti-mouse IgG H&L – Alexa Fluor 488 #ab150113, Abcam, Cambridge, UK) was added and incubated 30 min in dark at RT. Then, cells were rinsed with 2.5 mL PBS. In the last step, supernatant was discarded and cells were resuspended in 300 µL PBS and pipetted. The analysis was carried out by flow cytometry.

Series [2] is described as follows: in vitro. The conditions noted are these: human.
Series [3] relates to MCF-7 spheroids. Description: 3D spheroid culture, MCF-7. The format is cell-based, human. Here is the method:
The 3D cell culture was carried out with 6-Well Bio-Assembler Kit in accordance with the manufacturer’s instructions (Greiner Bio-One GmbH, Frickenhausen, Germany). First, MCF-7 and MDA-MB-231 were cultured in 2D using procedure and supplied to 80% confluency and treated with nanoshuttle at concentration of 1 µL/10 000 cell and incubated overnight. Following incubation, the medium was removed, and the cells were detached by trypsin–EDTA solution and resuspended in DMEM. The cells were counted using Scepter 2.0 Handheld Automated Cell Counter (Merck, Darmstadt, Germany) and plated at the concentration 1 × 10^6 cells per well in six-well plate. Then, cells were gently tilted in the flask to evenly distribute the nanoparticle and incubated (37 °C, 5% CO2, 95–98% humidity) for 1 h with magnet on the top of the plate. The cells self-assemble to spheroids. The obtained 3D cell culture was incubated until analysis.
The visualisation of the morphological changes in 3D cell culture of MCF-7 and MDA-MB-231 was evaluated using microscope (Nikon Eclipse Ti, Tokyo, Japan).
The mean ± standard deviation (SD) for all data is presented. One-way and two-way analysis of variance (ANOVA) was conducted followed by Dunnett’s test. GraphPad 8.0.1 Prism software (GraphPad Software, San Diego, CA) was used for calculation. The analysis of spheroids area was carried out using ImageJ software from the NIH (Bethesda, MD).

The subject of series [4] is Bax in MDA-MB-231 cells. Description: Anti-Bax antibody flow cytometry, MDA-MB-231. The format is cell-based, human. As to conditions: 24 h. Here is the method:
(§1) To evaluate the molecular mechanism of induction of apoptosis of tested compounds, the level of p53, NF-κB, mTOR, Bax, and beclin-1 was measured using appropriate antibody according to the manufacturer’s instruction. In brief, tryspinised cells were centrifuged, then supernatant was discarded, and cells were suspended in 4% FA (formaldehyde). Prepared samples were incubated 15 min at RT. Following incubation, the 2.5 mL PBS was added to each sample and centrifuged. Then, supernatant was discarded, and cells were resuspended in 90% ice-cold methanol to perform permeabilisation and left for 1 h in ice. To remove methanol, cells were rinsed with excess PBS by centrifugation. Following centrifugation, the supernatant was discarded. Then, cells were resuspended in 100 µL of appropriate diluted (1:100 in PBS) antibody conjugate (p53 (7F5) Rabbit mAb – Alexa Fluor 488 Conjugate #5429 Cell Signalling Technology, Danvers, MA; NF-κB p65 (D14E12) XP Rabbit mAb – Alexa Fluor 647 Conjugate #8801 Cell Signalling Technology, Danvers, MA; mTOR (7C10) Rabbit mAB – Alexa Fluor 647 #5048 Cell Signalling Technology, Danvers, MA; FITC Anti-Bax antibody (T22-A) #ab139543, Abcam, Cambridge, UK) and incubated 1 h in the dark at RT. Afterwards, cells were washed by centrifugation in 2 mL of incubation buffer. Finally, supernatant was removed and 300 µL PBS was added to each sample and pipetted. The analysis was performed by flow cytometry (BD FACSCanto II, Becton Dickinson Biosciences Systems, San Jose, CA) using FACSDiva software ver. 6.1.3.

For series [5], the system named is MDA-MB-231 breast cancer cells. Description: Apoptosis, annexin V-FITC/PI flow cytometry, MDA-MB-231. The format is cell-based, human. As to conditions: 24 h. Here is the method:
The analysis was performed using flow cytometry Apoptosis Detection Kit II (BD Biosciences, San Diego, CA) as described previously.

Series [6] concerns MDA-MB-231 breast cancer cells. Description: Autophagy Assay, Red, flow cytometry, MDA-MB-231. The format is cell-based, human. As for the experimental part:
The effect of novel compound 3b at 0.25 µM and 0.5 µM concentration on the induction of autophagy in MCF-7 and MDA-MB-231 pre-treated 1 h with or not autophagy inhibitor 3-MA for 1 h (3-methyladenine, Sigma-Aldrich, St. Louis, MO) at 1 mM concentration[29] was assessed by ICT’s Autophagy Assay, Red using a flow cytometer. The test was performed as previously. Briefly, cells were washed with PBS and suspended in 490 µL of PBS. To each probe, 10 µL of diluted Autophagy Probe, Red solution was added. Prepared samples were incubated at 37 °C for 60 min. Following incubation, cells were suspended in diluted cellular assay buffer and centrifuged. Then, supernatant was removed, and cells were resuspended in diluted cellular assay buffer and centrifuged again. This step was repeated three times. Finally, cell pellet was resuspended in 0.5 mL of diluted cellular assay buffer. The analysis was performed with a flow cytometer (excitation/emission 590 nm/620 nm).

Series [7] relates to mTOR in MCF-7 cells. Description: Anti-mTOR antibody flow cytometry, MCF-7. The format is cell-based, human. The conditions noted are these: MCF-7, 0.25 µM and 0.5 µM, 24 h. Here is the method: as §1, with “The analysis was performed by flow cytometry (BD FACSCanto II, Becton Dickinson Biosciences Systems, San Jose, CA) using FACSDiva software ver. 6.1.3.” left out
Series [8] has as its system caspase 9 in MCF-7 cells. Description: Activity of caspase 9, MCF-7. The series is classed as cell-based, human. The conditions noted are these: MCF-7, 0.5 µM, 24 h. Here is the method: MCF-7 and MDA-MB-231 cells were plated in six-well plates at density 1 × 10^6 and cultured in DMEM for 24 h. […] Then to identify the involvement of caspase family in inducing apoptosis, cells were pre-treated with Z-VAD-FMK (100 µM) 2 h before adding compounds[28]. The activation of caspases 9, 10, and 3/7 was detected as described before.

In series [9] the test system is NF-κB in MCF-7 cells. Description: Anti-NF-κB antibody flow cytometry, MCF-7. The format is cell-based, human. The conditions noted are these: 24 h, control 97.2 ± 0.6%. Here is the method:
as §1, with “The analysis was performed by flow cytometry (BD FACSCanto II, Becton Dickinson Biosciences Systems, San Jose, CA) using FACSDiva software ver. 6.1.3.” left out

`Cc1nn(-c2ccc(S(=O)(=O)N[C@@H](CO)Cc3ccccc3)cc2)c2nn3nnnc3nc12` [Compound 3b, (R)-N-(1-hydroxy-3-phenylpropan-2-yl)-4-(7-methyl-5H-pyrazolo[4,3-e]tetrazolo[1,5-b][1,2,4]triazin-6-yl)benzenesulfonamide]: in series [1], the “cells with active beclin-1” value was 13.9 ± 2.6%. For the same compound, in series [2], half-maximal inhibition (IC50 at 24 h) required 2300 ± 40 nM. Also, in series [3] (0.25 µM and 0.5 µM), the “effect on spheroid formation (in words)” value is “slower formation of spheroids compared to untreated cells”. Besides, the “spheroids smaller compared to the control” value in [3] (0.5 µM, 24 h) is listed as “approximately 86.37 ± 7.7%”. Further, the “cells with active Bax” value was determined as 6.3 ± 0.4% in series [4] (MDA-MB-231, 0.25 µM) and 16.9 ± 3.7% in [4] (MDA-MB-231, higher concentration (0.5 µM)). The compound further yielded an apoptotic cells in series [5] (MDA-MB-231, 0.25 µM) of 11.8 ± 1.3%. Moreover, the “early and late apoptotic cells” value in series [5] (MDA-MB-231, 0.5 µM) amounted to 29.5 ± 0.9%. The “autophagic cells (rate of autophagosomes)” value in series [6] (MDA-MB-231, 0.5 µM, 24 h) is reported as 47.1 ± 0.6%. Moreover, in [6] (MDA-MB-231, 3b 0.5 µM + 3-MA (1 mM, 1 h pre-treatment)), the “autophagic cells in presence of 3-MA” value was 25.9 ± 4.7%. Also, the “effect on cells with active mTOR (in words)” value in series [7] is “decrease in the number of cells with active mTOR”. In addition, the “percentage of active form of caspase 9” value in series [8] is 72.1 ± 2.3%. The “cells with active NF-κB” value was determined as 25.5 ± 4.5% in series [9] (MCF-7, 0.25 µM) and 19.8 ± 4.4% in series [9] (MCF-7, 0.5 µM).
